Assay results as given in patent publication US6258786A, “13-dihydro-3' aziridino anthracyclines” (Pharmacia & Upjohn S.p.A., priority 1998, dated 2001).

Assays:
Format in all cases: cell-based
LoVo = experiment: In vitro cytotoxicity, growth inhibition by SRB colorimetric assay, LoVo; conditions: Homo sapiens, cells incubated with the compound for 1 h, at least two experiments, read-out: IC50 (50% inhibitory concentration), Mean ± SE
Experimental: (§1) 1. The results of in vivo test of Ia on disseminated P388/DX murine leukemia are shown in Tab.2.
(§2) ^1 Cells incubated with the compound for 1 h.
(§3) ^2 50% inhibitory concentration represents the mean ± SE from
(§4) dose-response curves of at least two experiments
^4 Growth inhibition determined by SRB colorimetric assay.

L1210 = experiment: In vitro cytotoxicity, growth inhibition by counting surviving cells, L1210; conditions: Mus musculus, cells incubated with the compound for 1 h, at least two experiments, read-out: IC50 (50% inhibitory concentration), Mean ± SE
Experimental: as §1, §2, §3, §4
(§5) ^3 Growth inhibition determined by counting surviving cells.

[1] = test system: panel of murine and human tumor cell lines; experiment: In vitro cytotoxicity on a panel of murine and human tumor cell lines
Description: The compounds according to the invention are useful in methods of treatment of the human or animal body by therapy. They are useful as anti-tumor agents. They are useful in the treatment of leukemia and solid tumors, such as colon, colon-rectal, ovarian, mammary, prostate, lung, kidney and also melanoma tumors. A human can therefore be treated by a method comprising administering thereto a therapeutically effective amount of a compound of the invention. The condition of the human patient can thus be improved. The dosage to be given can be ascertained using known dosage ranges in the field of anthracyclines, modified by reference to the activity shown by the present compounds in in vitro and in vivo anti-tumor tests. Suitable dosages are generally in the range of 1 to 200 mg/m^2 body surface, preferably from 1 to 100 mg/m^2, depending on the nature and severity of the disease being treated and on the general condition of the patient. The compounds of formula I were tested and found active in vitro against a panel of murine and human tumor cell lines, and in vivo on disseminated P388/DX murine leukemia.
as §1

JURKAT = experiment: In vitro cytotoxicity, growth inhibition by counting surviving cells, JURKAT; conditions: Homo sapiens, cells incubated with the compound for 1 h, at least two experiments, read-out: IC50 (50% inhibitory concentration), Mean ± SE
Experimental: as §1, §2, §3, §4, §5

CEM = experiment: In vitro cytotoxicity, growth inhibition by counting surviving cells, CEM; conditions: Homo sapiens, CCRF-CEM, cells incubated with the compound for 1 h, at least two experiments, read-out: IC50 (50% inhibitory concentration), Mean ± SE
Experimental: as §1, §2, §3, §4, §5

## CC(O)[C@]1(O)Cc2c(O)c3c(c(O)c2[C@@H](O[C@H]2C[C@H](N4CC4)[C@H](OS(C)(=O)=O)[C@H](C)O2)C1)C(=O)c1ccccc1C3=O (mixture of isomers) [Ia, 13(R/S)-Dihydro-4-Demethoxy-3'-Deamino-3'-Aziridinyl-4'-Methansulfonyl Daunorubicin]
LoVo
  IC50: 20.3 ± 2 ng/mL
L1210
  IC50: 3.76 ± 0.13 ng/mL
[1]
  cytotoxicity / in vitro activity in words: high cytotoxicity
JURKAT
  IC50: 4.87 ± 0.7 ng/mL
CEM
  IC50: 5.86 ± 0.4 ng/mL
